Test results taken from patent US6737431B2 (Bristol-Myers Squibb Company, priority 2002, dated 2004).

How the values were obtained:
melatonin ML1a receptor = molecular target: T1, melatonin ML1a receptor (Homo sapiens, UniProt P48039); experiment: Melatonergic receptor binding, 2-[125I]-iodomelatonin, ML1a; conditions: Table I; NIH-3T3 membranes, 0.1 nM 2-[125I]-iodomelatonin, 37° C. 1 hour
T1 construct: expressed in transfected cells; membrane homogenates
Protocol: (§1) Melatonergic Receptor Binding Activity
(§2) (a) TME=50 mM Tris buffer containing 12.5 mM MgCl2, and 2 mM EDTA, pH 7.4 at 37° C., with concentrated HCl.
(§3) (b) Wash buffer: 20 mM Tris base containing 2 mM MgCl2, pH 7.4 at room temperature.
(§4) (c) 10^−4 M melatonin (10^−5 M final concentration).
(d) 2-[^125I]-iodomelatonin ML1a, 0.1 nM final concentration.
(§5) 2. Membrane Homogenates: The melatonin ML1a and ML1b receptors cDNA were individually subcloned into pcDNA3 and introduced into NIH-3T3 cells using Lipofectamine. Transformed NIH-3T3 cells resistant to geneticin (G-418) were isolated, and single colonies expressing high levels of 2[^125I]-iodomelatonin binding were isolated. Cells are maintained in DMEM supplemented with 10% calf serum and G-418 (0.5 g/liter). Cells are grown to confluency in T-175 flasks, scraped using Hank's balanced salt solution, and frozen at −80° C. For preparing membrane homogenates, pellets are thawed on ice, and re-suspended in TME buffer in the presence of 10 μg/ml aprotinin and leupeptin, and 100 μM phenylmethylsulfonylfluoride. The cells were then homogenized using a dounce homogenizer, and centrifuged. The resulting pellet was re-suspended with dounce homogenizer in TME (supplemented with the above protease inhibitors) and frozen. On the day of assay, a small aliquot was thawed on ice and re-suspended in the ice cold TME (1:50-1:100 v/v) and held on ice until assayed.
(§6) 3. Incubation: 37° C. for 1 hour. Reaction is terminated by filtration. Filters were washed 3 times.
(§7) 4. References: Reppert, S. M. et al., Neuron, 13, p. 1177-1185 (1994); and Reppert, S. M. et al., Proc. Natl. Acad. Sci. USA, 92, p. 8734-8738 (1995).
(§8) The compounds of the present invention have affinity for receptors of the endogenous pineal hormone, melatonin, as determined in receptor binding assays described above in Tables I to III for the ML1a and ML1b (human) receptors. Melatonin is involved in the regulation of a variety of biological rhythms and exerts its biological effects via interaction with specific receptors. There is evidence that administration of melatonin agonists are of clinical utility in the treatment of various conditions regulated by melatonin activity. Such conditions include depression, jet-lag, work-shift syndrome, sleep disorders, glaucoma, some disorders associated with reproduction, cancer benign prostatic hyperplasia, immune disorders, and neuroendocrine disorders.

melatonin ML1b receptor = molecular target: T2, melatonin ML1b receptor (Homo sapiens, UniProt P49286); experiment: Melatonergic receptor binding, 2-[125I]-iodomelatonin, ML1b; conditions: NIH-3T3 membranes, 0.2 nM 2-[125I]-iodomelatonin, 37° C. 1 hour
T2 construct: expressed in transfected cells; membrane homogenates
T2 sequence (P49286 1-362): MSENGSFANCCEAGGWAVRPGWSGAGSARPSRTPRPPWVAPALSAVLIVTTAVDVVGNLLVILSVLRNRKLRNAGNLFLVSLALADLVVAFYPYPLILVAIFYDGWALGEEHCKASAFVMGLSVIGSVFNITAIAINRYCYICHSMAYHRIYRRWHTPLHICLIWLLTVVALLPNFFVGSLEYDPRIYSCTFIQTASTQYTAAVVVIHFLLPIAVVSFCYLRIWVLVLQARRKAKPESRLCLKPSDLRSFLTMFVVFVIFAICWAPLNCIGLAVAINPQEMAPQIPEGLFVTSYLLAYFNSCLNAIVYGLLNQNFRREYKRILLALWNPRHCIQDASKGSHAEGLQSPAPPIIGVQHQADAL
Protocol: as §1, §2, §3, §4
(e) 2-[^125I]-iodomelatonin ML1b, 0.2 nM final concentration.
as §5, §6, §7, §8

T1 sequence (P48039 whole entry): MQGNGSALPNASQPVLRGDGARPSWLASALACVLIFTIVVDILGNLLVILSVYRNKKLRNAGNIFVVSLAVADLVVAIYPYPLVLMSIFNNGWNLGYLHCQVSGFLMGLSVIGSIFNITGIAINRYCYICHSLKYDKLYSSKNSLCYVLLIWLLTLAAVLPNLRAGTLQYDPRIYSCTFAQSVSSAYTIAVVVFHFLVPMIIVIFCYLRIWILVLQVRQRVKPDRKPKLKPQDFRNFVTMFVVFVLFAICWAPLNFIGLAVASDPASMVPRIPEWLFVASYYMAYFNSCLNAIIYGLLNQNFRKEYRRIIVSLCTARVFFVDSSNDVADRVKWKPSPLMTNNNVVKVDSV

Row | Compound | IC50 (melatonin ML1a receptor) | IC50 (melatonin ML1b receptor; Table I) | IC50 (melatonin ML1b receptor; Table II)
1 | CC(=O)NCCCc1cccc2nc(C)oc12 [Example 1, N-[3-(2-Methyl-7-benzoxazolyl)propyl]acetamide] | 10 to 250 nM | 10 to 250 nM | 
2 | CCC(=O)NCCCc1cccc2nc(C)oc12 [Example 2, N-[3-(2-Methyl-7-benzoxazolyl)propyl]propanamide] | < 10 nM | < 10 nM | 
3 | CCc1nc2cccc(CCCNC(C)=O)c2o1 [Example 7, N-[3-(2-Ethylbenzoxazol-7-yl)propyl]acetamide] | 10 to 250 nM | < 10 nM | 
4 | CCc1nc2cccc(CCCNC(=O)C3CC3)c2o1 [Example 11, Cyclopropyl-N-[3-(2-ethylbenzoxazol-7-yl)propyl]carboxamide] | < 10 nM | 10 to 250 nM | 
5 | CCCc1nc2cccc(CCCNC(C)=O)c2o1 [Example 13, N-[3-(2-Propylbenzoxazol-7-yl)propyl]acetamide] | > 250 nM | 10 to 250 nM | 
6 | CCCc1nc2cccc(CCCNC(=O)CC)c2o1 [Example 14, N-[3-(2-Propylbenzoxazol-7-yl)propyl]propanamide] | 10 to 250 nM | 10 to 250 nM | 
7 | CCCc1nc2cccc(CCCNC(=O)C(C)C)c2o1 [Example 16, 2-Methyl-N-[3-(2-propylbenzoxazol-7-yl)propyl]propanamide] | 10 to 250 nM | 10 to 250 nM | 
8 | CCCc1nc2cccc(CCCNC(=O)C3CC3)c2o1 [Example 17, Cyclopropyl-N-[3-(2-propylbenzoxazol-7-yl)propyl]carboxamide] | 10 to 250 nM | 10 to 250 nM | 
9 | CCCC(=O)NCCCc1cccc2nc(-c3ccccc3)oc12 [Example 21, N-[3-(2-Phenylbenzoxazol-7-yl)propyl]butanamide] | 10 to 250 nM | 10 to 250 nM | 
10 | O=C(NCCCc1cccc2nc(-c3ccccc3)oc12)C1CC1 [Example 23, Cyclopropyl-N-[3-(2-phenylbenzoxazol-7-yl)propyl]carboxamide] | 10 to 250 nM | 10 to 250 nM | 
11 | CCNC(=O)NCCCc1cccc2nc(-c3ccccc3)oc12 [Example 24, (Ethylamino)-N-[3-(2-phenylbenzoxazol-7-yl)propyl]carboxamide] | > 250 nM | 10 to 250 nM | 
12 | CC(=O)NCCCc1cccc2nc(CCCCc3ccccc3)oc12 [Example 25, N-{3-[2-(4-Phenylbutyl)benzoxazol-7-yl]propyl}acetamide] | < 10 nM | 10 to 250 nM | 
13 | CCCC(=O)NCCCc1cccc2nc(CCCCc3ccccc3)oc12 [Example 27, N-{3-[2-(4-Phenylbutyl)benzoxazol-7-yl]propyl}butanamide] | < 10 nM | 10 to 250 nM | 
14 | O=C(NCCCc1cccc2nc(CCCCc3ccccc3)oc12)C1CC1 [Example 29, Cyclopropyl-N-{3-[2-(4-phenylbutyl)benzoxazol-7-yl]propyl}carboxamide] | < 10 nM | 10 to 250 nM | 
15 | CC(=O)NCCCc1cccc2nc(C(C)C)oc12 [Example 34, N-{3-[2-(Methylethyl)benzoxazol-7-yl]propyl}acetamide] | 10 to 250 nM | 10 to 250 nM | 
16 | CCCC(=O)NCCCc1cccc2nc(C(C)C)oc12 [Example 36, N-{3-[2-(Methylethyl)benzoxazol-7-yl]propyl}butanamide] | 10 to 250 nM | 10 to 250 nM | 

More lines, now with the values ahead:

Row | IC50 (melatonin ML1a receptor) | IC50 (melatonin ML1b receptor; Table I) | IC50 (melatonin ML1b receptor; Table II) | Compound
17 | < 10 nM | < 10 nM |  | CCCC(=O)NCCCc1cccc2nc(C)oc12 [Example 3, N-[3-(2-Methyl-7-benzoxazolyl)propyl]butanamide]
18 | < 10 nM | < 10 nM |  | Cc1nc2cccc(CCCNC(=O)C3CC3)c2o1 [Example 4, N-[3-(2-Methyl-7-benzoxazolyl)propyl]cyclopropanecarboxamide]
19 | < 10 nM | < 10 nM |  | Cc1nc2cccc(CCCNC(=O)C(C)C)c2o1 [Example 5, N-[3-(2-Methyl-7-benzoxazolyl)propyl]-2-methylpropanamide]
20 | 10 to 250 nM | 10 to 250 nM |  | CCNC(=O)NCCCc1cccc2nc(C)oc12 [Example 6, (Ethylamino)-N-[3-(2-methylbenzoxazol-7-yl)propyl]carboxamide]
21 | < 10 nM | < 10 nM |  | CCC(=O)NCCCc1cccc2nc(CC)oc12 [Example 8, N-[3-(2-Ethylbenzoxazol-7-yl)propyl]propanamide]
22 | 10 to 250 nM | < 10 nM |  | CCCC(=O)NCCCc1cccc2nc(CC)oc12 [Example 9, N-[3-(2-Ethylbenzoxazol-7-yl)propyl]butanamide]
23 | 10 to 250 nM | 10 to 250 nM |  | CCc1nc2cccc(CCCNC(=O)C(C)C)c2o1 [Example 10, N-[3-(2-Ethylbenzoxazol-7-yl)propyl]-2-methylpropanamide]
24 | 10 to 250 nM | 10 to 250 nM |  | CCNC(=O)NCCCc1cccc2nc(CC)oc12 [Example 12, (Ethylamino)-N-[3-(2-ethylbenzoxazol-7-yl)propyl]carboxamide]
25 | > 250 nM | 10 to 250 nM |  | CCCC(=O)NCCCc1cccc2nc(CCC)oc12 [Example 15, N-[3-(2-Propylbenzoxazol-7-yl)propyl]butanamide]
26 | > 250 nM | 10 to 250 nM |  | CCCc1nc2cccc(CCCNC(=O)NCC)c2o1 [Example 18, (Ethylamino)-N-[3-(2-propylbenzoxazol-7-yl)propyl]carboxamide]
27 | 10 to 250 nM | 10 to 250 nM |  | CC(=O)NCCCc1cccc2nc(-c3ccccc3)oc12 [Example 19, N-[3-(2-Phenylbenzoxazol-7-yl)propyl]acetamide]
28 | 10 to 250 nM | 10 to 250 nM |  | CCC(=O)NCCCc1cccc2nc(-c3ccccc3)oc12 [Example 20, N-[3-(2-Phenylbenzoxazol-7-yl)propyl]propanamide]
29 | 10 to 250 nM | 10 to 250 nM |  | CC(C)C(=O)NCCCc1cccc2nc(-c3ccccc3)oc12 [Example 22, 2-Methyl-N-[3-(2-phenylbenzoxazol-7-yl)propyl]propanamide]
30 | < 10 nM | 10 to 250 nM |  | CCC(=O)NCCCc1cccc2nc(CCCCc3ccccc3)oc12 [Example 26, N-{3-[2-(4-Phenylbutyl)benzoxazol-7-yl]propyl}propanamide]
31 | < 10 nM | 10 to 250 nM |  | CC(C)C(=O)NCCCc1cccc2nc(CCCCc3ccccc3)oc12 [Example 28, 2-Methyl-N-{3-[2-(4-phenylbutyl)benzoxazol-7-yl]propyl}propanamide]
32 | < 10 nM | 10 to 250 nM |  | CCNC(=O)NCCCc1cccc2nc(CCCCc3ccccc3)oc12 [Example 30, (Ethylamino)-N-{3-[2-(4-phenylbutyl)benzoxazol-7-yl]propyl}carboxamide]
33 | 10 to 250 nM | 10 to 250 nM |  | CC(=O)NCCCc1cccc2ncoc12 [Example 31, N-(3-Benzoxazol-7-ylpropyl)acetamide]
34 | 10 to 250 nM | < 10 nM |  | CCC(=O)NCCCc1cccc2ncoc12 [Example 32, N-(3-Benzoxazol-7-ylpropyl)propanamide]
35 | 10 to 250 nM | < 10 nM |  | CC(C)C(=O)NCCCc1cccc2ncoc12 [Example 33, N-(3-Benzoxazol-7-ylpropyl)-2-methylpropanamide]
36 | 10 to 250 nM | 10 to 250 nM |  | CCC(=O)NCCCc1cccc2nc(C(C)C)oc12 [Example 35, N-{3-[2-(Methylethyl)benzoxazol-7-yl]propyl}propanamide]
37 | 10 to 250 nM | 10 to 250 nM |  | CC(C)C(=O)NCCCc1cccc2nc(C(C)C)oc12 [Example 37, 2-Methyl-N-{3-[2-(methylethyl)benzoxazol-7-yl]propyl}propanamide]
38 |  |  | > 250 nM | CCc1nc2ccc(-c3ccco3)c(CCCNC(=O)c3ccccc3)c2o1 [Example 74, N-[3-(2-Ethyl-6-(2-furyl)benzoxazol-7-yl)propyl]benzamide]
